From US8143263B2, “Therapeutic agents” (Astrazeneca AB, priority 2008, dated 2012)

Biological target: T1, recombinant human pancreatic GLK (Homo sapiens, UniProt P35557)
T1 sequence (P35557 1-465): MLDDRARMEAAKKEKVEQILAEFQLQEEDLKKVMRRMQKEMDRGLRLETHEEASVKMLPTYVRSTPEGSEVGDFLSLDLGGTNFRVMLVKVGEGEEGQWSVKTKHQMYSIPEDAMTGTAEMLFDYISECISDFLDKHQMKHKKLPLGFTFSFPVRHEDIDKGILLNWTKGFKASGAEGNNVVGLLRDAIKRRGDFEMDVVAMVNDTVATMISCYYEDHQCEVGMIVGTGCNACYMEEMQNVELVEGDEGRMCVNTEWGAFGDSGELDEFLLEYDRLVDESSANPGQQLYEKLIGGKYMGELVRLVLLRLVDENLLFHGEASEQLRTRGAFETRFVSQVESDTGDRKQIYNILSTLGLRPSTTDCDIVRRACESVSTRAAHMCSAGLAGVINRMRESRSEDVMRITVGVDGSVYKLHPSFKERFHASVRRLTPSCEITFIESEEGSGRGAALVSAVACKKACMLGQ
Assay: biochemical

SMILES | EC50 [nM]
CCC(C)C(Sc1ncnc2c1cnn2-c1ccccc1Cl)C(=O)Nc1ccc(C)cn1 (stereo not drawn) [Example 56, 2-{[1-(2-chlorophenyl)-1H-pyrazolo[3,4-d]pyrimidin-4-yl]thio}-3-methyl-N-(5-methylpyridin-2-yl)pentanamide] | 3100
COCCOCCC(Sc1ncnc2c1cnn2C(C)C)C(=O)Nc1nc(C)cs1 (stereo not drawn) [Example 57, 2-[(1-Isopropyl-1H-pyrazolo[3,4-d]pyrimidin-4-yl)thio]-4-(2-methoxyethoxy)-N-(4-methyl-1,3-thiazol-2-yl)butanamide] | 30000
COCCOCCC(Sc1ncnc2c1cnn2C(C)C)C(=O)Nc1ccc(C)cn1 (stereo not drawn) [Example 58, 2-[(1-Isopropyl-1H-pyrazolo[3,4-d]pyrimidin-4-yl)thio]-4-(2-methoxyethoxy)-N-(5-methylpyridin-2-yl)butanamide] | 1950
CCCCC(Sc1ncnc2c1cnn2-c1ccccc1Cl)C(=O)Nc1nc(C)cs1 (stereo not drawn) [Example 59, 2-{[1-(2-chlorophenyl)-1h-pyrazolo[3,4-]pyrimidin-4-yl]thio}-n-(4-methyl-1,3-thiazol-2-yl)hexanamide] | 650
COCC(Sc1ncnc2c1cnn2-c1ccccc1Cl)C(=O)Nc1ccc(C)cn1 (stereo not drawn) [Example 62, 2-{[1-(2-Chlorophenyl)-1H-pyrazolo[3,4-d]pyrimidin-4-yl]thio}-3-methoxy-N-(5-methylpyridin-2-yl)propanamide] | 12000
CCCCCCC(Sc1ncnc2c1cnn2-c1ccccc1Cl)C(=O)Nc1nc(C)cs1 (stereo not drawn) [Example 63, 2-{[1-(2-chlorophenyl)-1H-pyrazolo[3,4-d]pyrimidin-4-yl]thio}-N-(4-methyl-1,3-thiazol-2-yl)octanamide] | > 4500
CCCCCCC(Sc1ncnc2c1cnn2-c1ccccc1Cl)C(=O)Nc1ccon1 (stereo not drawn) [Example 64, 2-{[1-(2-chlorophenyl)-1H-pyrazolo[3,4-d]pyrimidin-4-yl]thio}-N-isoxazol-3-yloctanamide] | 10000
CCOC(Sc1ncnc2c1cnn2-c1ccccc1OC)C(=O)Nc1nc(C)cs1 (stereo not drawn) [Example 71, 2-Ethoxy-2-{[1-(2-methoxyphenyl)-1H-pyrazolo[3,4-d]pyrimidin-4-yl]thio}-N-(4-methyl-1,3-thiazol-2-yl)acetamide] | 1600
CCOC(Sc1ncnc2c1cnn2-c1ccccc1OC)C(=O)Nc1ccon1 (stereo not drawn) [Example 72, 2-Ethoxy-N-isoxazol-3-yl-2-{[1-(2-methoxyphenyl)-1H-pyrazolo[3,4-d]pyrimidin-4-yl]thio}acetamide] | 2900
COCCC(Oc1ncnc2c1cnn2C(C)C)C(=O)Nc1ccc(C)cn1 (stereo not drawn) [Example 76, 2-[(1-isopropyl-1H-pyrazolo[3,4-d]pyrimidin-4-yl)oxy]-4-methoxy-N-(5-methylpyridin-2-yl)butanamide] | ≥ 100000
Cc1ccc(NC(=O)C(Oc2ncnc3c2cnn3-c2ccccc2Cl)C(C)C)nc1 (stereo not drawn) [Example 83, 2-(1-(2-chlorophenyl)-1H-pyrazolo[3,4-d]pyrimidin-4-yloxy)-3-methyl-N-(5-methylpyridin-2-yl)butanamide] | 870
Cc1ccc(NC(=O)[C@@H](Oc2ncnc3c2cnn3-c2ccccc2Cl)C(C)C)nc1 [Example 84, (2S)-2-(1-(2-chlorophenyl)-1H-pyrazolo[3,4-d]pyrimidin-4-yloxy)-3-methyl-N-(5-methylpyridin-2-yl)butanamide] | 470
Cc1ccc(NC(=O)[C@H](Oc2ncnc3c2cnn3-c2ccccc2Cl)C(C)C)nc1 [Example 85, (2R)-2-(1-(2-chlorophenyl)-1H-pyrazolo[3,4-d]pyrimidin-4-yloxy)-3-methyl-N-(5-methylpyridin-2-yl)butanamide] | 9500
Cc1ccc(NC(=O)[C@@H](Oc2ncnc3c2cnn3-c2ncccc2Cl)C(C)C)nc1 [Example 86, (2S)-2-(1-(3-chloropyridin-2-yl)-1H-pyrazolo[3,4-d]pyrimidin-4-yloxy)-3-methyl-N-(5-methylpyridin-2-yl)butanamide] | 1500
COC[C@H](Oc1ncnc2c1cnn2-c1ccccc1Cl)C(=O)Nc1ccc(C)cn1 [Example 87, (2S)-2-(1-(2-chlorophenyl)-1H-pyrazolo[3,4-d]pyrimidin-4-yloxy)-3-methoxy-N-(5-methylpyridin-2-yl)propanamide] | 320
COC[C@@H](Oc1ncnc2c1cnn2-c1ccccc1Cl)C(=O)Nc1ccc(C)cn1 [Example 88, (2R)-2-(1-(2-chlorophenyl)-1H-pyrazolo[3,4-d]pyrimidin-4-yloxy)-3-methoxy-N-(5-methylpyridin-2-yl)propanamide] | 5100
COC[C@H](Oc1ncnc2c1cnn2-c1ncccc1Cl)C(=O)Nc1ccc(C)cn1 [Example 89, (2S)-2-(1-(3-chloropyridin-2-yl)-1H-pyrazolo[3,4-d]pyrimidin-4-yloxy)-3-methoxy-N-(5-methylpyridin-2-yl)propanamide] | 1500

SMILES | EC50 [nM]
COC[C@H](Oc1ncnc2c1cnn2-c1ncccc1Cl)C(=O)Nc1cnc(C)cn1 [Example 90, (2S)-2-(1-(3-chloropyridin-2-yl)-1H-pyrazolo[3,4-d]pyrimidin-4-yloxy)-3-methoxy-N-(5-methylpyrazin-2-yl)propanamide] | 5400
Cc1ccc(NC(=O)[C@H](COC(C)C)Oc2ncnc3c2cnn3-c2ncccc2Cl)nc1 [Example 91, (2S)-2-(1-(3-chloropyridin-2-yl)-1H-pyrazolo[3,4-d]pyrimidin-4-yloxy)-3-isopropoxy-N-(5-methylpyridin-2-yl)propanamide] | 160
Cc1cnc(NC(=O)[C@H](COC(C)C)Oc2ncnc3c2cnn3-c2ncccc2Cl)cn1 [Example 92, (2S)-2-(1-(3-chloropyridin-2-yl)-1H-pyrazolo[3,4-d]pyrimidin-4-yloxy)-3-isopropoxy-N-(5-methylpyrazin-2-yl)propanamide] | 420
Cc1nsc(NC(=O)[C@H](COC(C)C)Oc2ncnc3c2cnn3-c2ncccc2Cl)n1 [Example 93, (2S)-2-(1-(3-chloropyridin-2-yl)-1H-pyrazolo[3,4-d]pyrimidin-4-yloxy)-3-isopropoxy-N-(3-methyl-1,2,4-thiadiazol-5-yl)propanamide] | 3300
Cc1cnc(NC(=O)[C@@H](Oc2ncnc3c2cnn3-c2ncccc2Cl)C(C)C)cn1 [Example 94, (2S)-2-(1-(3-chloropyridin-2-yl)-1H-pyrazolo[3,4-d]pyrimidin-4-yloxy)-3-methyl-N-(5-methylpyrazin-2-yl)butanamide] | 9200
COC[C@H](Oc1ncnc2c1cnn2-c1ccc(F)cc1Cl)C(=O)Nc1cnc(C)cn1 [Example 95, (2S)-2-(1-(2-chloro-4-fluorophenyl)-1H-pyrazolo[3,4-d]pyrimidin-4-yloxy)-3-methoxy-N-(5-methylpyrazin-2-yl)propanamide] | 39000
COC[C@H](Oc1ncnc2c1cnn2-c1ccc(F)cc1Cl)C(=O)Nc1ccc(C)cn1 [Example 96, (2S)-2-(1-(2-chloro-4-fluorophenyl)-1H-pyrazolo[3,4-d]pyrimidin-4-yloxy)-3-methoxy-N-(5-methylpyridin-2-yl)propanamide] | 1300
COC[C@H](Oc1ncnc2c1cnn2-c1ccccc1C#N)C(=O)Nc1ccc(C)cn1 [Example 97, (2S)-2-(1-(2-cyanophenyl)-1H-pyrazolo[3,4-d]pyrimidin-4-yloxy)-3-methoxy-N-(5-methylpyridin-2-yl)propanamide] | 1200
Cc1ccc(NC(=O)[C@H](COC(C)C)Oc2ncnc3c2cnn3-c2ccccc2C#N)nc1 [Example 97a, (2S)-2-[1-(2-cyanophenyl)pyrazolo[4,5-e]pyrimidin-4-yl]oxy-N-(5-methylpyridin-2-yl)-3-propan-2-yloxypropanamide] | 460
Cc1ccc(NC(=O)[C@H](COC(C)C)Oc2ncnc3c2cnn3-c2ccccc2Cl)nc1 [Example 98, (2S)-2-(1-(2-chlorophenyl)-1H-pyrazolo[3,4-d]pyrimidin-4-yloxy)-3-isopropoxy-N-(5-methylpyridin-2-yl)propanamide] | 110
Cc1ccc(NC(=O)[C@@H](COC(C)C)Oc2ncnc3c2cnn3-c2ccccc2Cl)nc1 [Example 99, (2R)-2-(1-(2-chlorophenyl)-1H-pyrazolo[3,4-d]pyrimidin-4-yloxy)-3-isopropoxy-N-(5-methylpyridin-2-yl)propanamide] | 9300
Cc1nsc(NC(=O)[C@H](COC(C)C)Oc2ncnc3c2cnn3-c2ccccc2Cl)n1 [Example 100, (2S)-2-[1-(2-Chlorophenyl)pyrazolo[4,5-e]pyrimidin-4-yl]oxy-N-(3-methyl-1,2,4-thiadiazol-5-yl)-3-propan-2-yloxypropanamide] | 1000
COC[C@H](Oc1ncnc2c1cnn2-c1ccccc1Cl)C(=O)Nc1nc(C)ns1 [Example 101, (2S)-2-(1-(2-Chlorophenyl)-1H-pyrazolo[3,4-d]pyrimidin-4-yloxy)-3-methoxy-N-(3-methyl-1,2,4-thiadiazol-5-yl)propanamide] | 5000
COCC[C@H](Oc1ncnc2c1cnn2-c1ncccc1Cl)C(=O)Nc1ccc(C)cn1 [Example 102, (2S)-2-(1-(3-Chloropyridin-2-yl)-1H-pyrazolo[3,4-d]pyrimidin-4-yloxy)-4-methoxy-N-(5-methylpyridin-2-yl)butanamide] | 130
CCOC[C@H](Oc1ncnc2c1cnn2-c1ncccc1Cl)C(=O)Nc1ccc(C)cn1 [Example 103, (2S)-2-[1-(3-Chloropyridin-2-yl)pyrazolo[4,5-e]pyrimidin-4-yl]oxy-3-ethoxy-N-(5-methylpyridin-2-yl)propanamide] | 280
CCOC[C@H](Oc1ncnc2c1cnn2-c1ncccc1Cl)C(=O)Nc1cnc(C)cn1 [Example 104, (2S)-2-[1-(3-Chloropyridin-2-yl)pyrazolo[4,5-e]pyrimidin-4-yl]oxy-3-ethoxy-N-(5-methylpyrazin-2-yl)propanamide] | 1200
